This note sets out measurements from PubChem BioAssay AID330 (DTP/NCI, 2004).

“And” between values parts separate entries of the source, which are not always exact repeats. Equal values may be shown once. Toxic doses and inconclusive results are not listed.

The assay concerns P388 leukemia ip, CD2F1 mice, survival T/C. Put plainly: NCI In Vivo Anticancer Drug Screen. Data for tumor model P388 Leukemia (intraperitoneal) in CD2F1 (CDF1) mice. As to conditions: endpoint: median survival time, higher = longer survival. The method, boiled down:
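Mice carrying the transplanted tumor received test compound or vehicle. Survival was recorded in each group, and the value is the treated-group measurement divided by that of the vehicle-treated control group.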

Where [1] appears, read: dose: 50.0 mg/kg/injection, schedule: Q01DX009 (ip), vehicle: saline with Tween-80.
The mark [2] stands for this setting: dose: 100.0 mg/kg/injection, schedule: Q01DX009 (ip), vehicle: saline with Tween-80.
[3] abbreviates: dose: 200.0 mg/kg/injection, schedule: Q01DX009 (ip), vehicle: saline with Tween-80.
Where [4] appears, read: dose: 50.0 mg/kg/injection, schedule: Q01DX005 (ip), vehicle: Klucel (hydroxypropylcellulose) (HPC).
[5] abbreviates: dose: 50.0 mg/kg/injection, schedule: Q01DX005 (ip), vehicle: saline with Tween-80.
[6] abbreviates: dose: 100.0 mg/kg/injection, schedule: Q01DX005 (ip), vehicle: Klucel (hydroxypropylcellulose) (HPC).
The mark [7] stands for this setting: dose: 100.0 mg/kg/injection, schedule: Q01DX005 (ip), vehicle: saline with Tween-80.
Where [8] appears, read: dose: 200.0 mg/kg/injection, schedule: Q01DX005 (ip), vehicle: saline with Tween-80.
The mark [9] stands for this setting: dose: 50.0 mg/kg/injection, schedule: Q01DX005 (ip), vehicle: saline.
[10] abbreviates: dose: 100.0 mg/kg/injection, schedule: Q01DX005 (ip), vehicle: saline.
The mark [11] stands for this setting: dose: 200.0 mg/kg/injection, schedule: Q01DX005 (ip), vehicle: saline.
The mark [12] stands for this setting: dose: 60.0 mg/kg/injection, schedule: Q01DX005 (ip), vehicle: Klucel (hydroxypropylcellulose) (HPC).
Where [13] appears, read: dose: 120.0 mg/kg/injection, schedule: Q01DX005 (ip), vehicle: Klucel (hydroxypropylcellulose) (HPC).
Setting [14] is: dose: 240.0 mg/kg/injection, schedule: Q01DX005 (ip), vehicle: Klucel (hydroxypropylcellulose) (HPC).

`O=C(N/N=C\c1ccc(Cl)cc1)c1ccccc1`: the T/C by setting is: under setting [1], 95 % of control; under setting [2], 90 % of control; under setting [3], 104 % of control.

Take `FC(F)(F)C1(C(F)(F)F)O[Si]2(OC(C(F)(F)F)(C(F)(F)F)c3ccccc32)c2ccccc21` (tested in a mixture with another compound): the T/C was 109 % of control (dose: 25.0 mg/kg/injection, schedule: Q04DX002 (ip), vehicle: Klucel (hydroxypropylcellulose) (HPC)); 94 % of control (dose: 50.0 mg/kg/injection, schedule: Q04DX002 (ip), vehicle: Klucel (hydroxypropylcellulose) (HPC)); 100 % of control and 102 % of control (dose: 100.0 mg/kg/injection, schedule: Q04DX002 (ip), vehicle: Klucel (hydroxypropylcellulose) (HPC)).

With `COP(=O)(O)OC.[Ti]`, the T/C (dose: 25.0 mg/kg/injection, schedule: Q01DX001 (ip), vehicle: saline with Tween-80) was 100 % of control; the T/C (dose: 50.0 mg/kg/injection, schedule: Q01DX001 (ip), vehicle: saline with Tween-80) is 100 % of control; the T/C (dose: 100.0 mg/kg/injection, schedule: Q01DX001 (ip), vehicle: saline with Tween-80) is 96 % of control.

Turning to `O=C(NCCCCCNC(=O)C12CC3CC(CC(C3)C1)C2)C12CC3CC(CC(C3)C1)C2`, the T/C under setting [4] is 90 % of control; the T/C under setting [5] is 102 % of control; the T/C under setting [6] is 89 % of control; the T/C under setting [7] was 105 % of control; the T/C under setting [8] is 95 % of control.

Regarding `CC(O)(CO)CC(C)(O)CO` (configuration not stated), the T/C by setting is: under setting [9], 97 % of control; under setting [10], 105 % of control; under setting [11], 103 % of control.

For the compound `[NH-]C(CO)C(O)c1ccccc1.[NH-]C(CO)C(O)c1ccccc1.[NH-]C(CO)C(O)c1ccccc1.[Pr+3]` (configuration not stated), the T/C reads like this: under setting [4], 103 % of control; under setting [6], 97 % of control; (dose: 200.0 mg/kg/injection, schedule: Q01DX005 (ip), vehicle: Klucel (hydroxypropylcellulose) (HPC)) 99 % of control.

With `NOCc1ccc(CON)cc1`, the T/C by setting is: under setting [1], 95 % of control; under setting [2], 95 % of control; under setting [3], 91 % of control.

With `CCC1C(=O)CC(C(=O)O)C1C(=O)O` (configuration not stated), the T/C (dose: 30.0 mg/kg/injection, schedule: Q01DX005 (ip), vehicle: saline) was 98 % of control; the T/C (dose: 60.0 mg/kg/injection, schedule: Q01DX005 (ip), vehicle: saline) is 98 % of control and 96 % of control; the T/C (dose: 120.0 mg/kg/injection, schedule: Q01DX005 (ip), vehicle: saline) was 95 % of control; the T/C (dose: 240.0 mg/kg/injection, schedule: Q01DX005 (ip), vehicle: saline) was 86 % of control.

With `COc1ccc2c(CP(=O)(O)O)cc(=O)oc2c1`, the T/C was 99 % of control (dose: 100.0 mg/kg/injection, schedule: Q01DX001 (ip), vehicle: suspension in saline); 100 % of control (dose: 200.0 mg/kg/injection, schedule: Q01DX001 (ip), vehicle: suspension in saline); 87 % of control (dose: 400.0 mg/kg/injection, schedule: Q01DX001 (ip), vehicle: suspension in saline).

For `O=C1OC(=O)C2CC=CCC12` (configuration not stated), the T/C under setting [1] is 95 % of control, the T/C under setting [2] is 93 % of control and the T/C under setting [3] was 100 % of control.

Regarding `C/C(Br)=C(\C(=O)O)S(=O)(=O)O`, the T/C (dose: 5.0 mg/kg/injection, schedule: Q01DX009 (ip), vehicle: saline with Tween-80) was 106 % of control; the T/C (dose: 10.0 mg/kg/injection, schedule: Q01DX009 (ip), vehicle: saline with Tween-80) was 97 % of control; the T/C (dose: 20.0 mg/kg/injection, schedule: Q01DX009 (ip), vehicle: saline with Tween-80) is 99 % of control.

`O=S(=O)(NC(=S)S)c1ccccc1`: the T/C runs as follows: (dose: 12.5 mg/kg/injection, schedule: Q01DX009 (ip), vehicle: water) 102 % of control and 88 % of control and 94 % of control; (dose: 25.0 mg/kg/injection, schedule: Q01DX009 (ip), vehicle: water) 104 % of control and 107 % of control and 94 % of control; (dose: 50.0 mg/kg/injection, schedule: Q01DX009 (ip), vehicle: water) 102 % of control and 106 % of control and 116 % of control; (dose: 100.0 mg/kg/injection, schedule: Q01DX009 (ip), vehicle: water) 112 % of control (2×) and 123 % of control.

As to `CC[n+]1ccc(Nc2ccc(NC(=O)c3ccc(Nc4cc[n+](CC)c5ccc([N+](=O)[O-])cc45)cc3)cc2)cc1`, the T/C (dose: 11.0 mg/kg/injection, schedule: Q01DX009 (ip), vehicle: Klucel (hydroxypropylcellulose) (HPC)) was 162 % of control and 200 % of control; the T/C (dose: 16.0 mg/kg/injection, schedule: Q01DX009 (ip), vehicle: Klucel (hydroxypropylcellulose) (HPC)) is 215 % of control; the T/C (dose: 16.5 mg/kg/injection, schedule: Q01DX009 (ip), vehicle: Klucel (hydroxypropylcellulose) (HPC)) was 226 % of control; the T/C (dose: 22.0 mg/kg/injection, schedule: Q04DX003 (ip), vehicle: saline) was 175 % of control; the T/C (dose: 24.0 mg/kg/injection, schedule: Q01DX009 (ip), vehicle: Klucel (hydroxypropylcellulose) (HPC)) was 200 % of control; the T/C (dose: 25.0 mg/kg/injection, schedule: Q04DX003 (ip), vehicle: saline) was 154 % of control. The T/C runs as follows: (dose: 33.0 mg/kg/injection, schedule: Q04DX003 (ip), vehicle: saline) 175 % of control; (dose: 50.0 mg/kg/injection, schedule: Q04DX003 (ip), vehicle: saline) 180 % of control.

Take `O=c1[nH]cc([N+](=O)[O-])cc1Cl`: the T/C is, setting by setting: under setting [5], 104 % of control; under setting [7], 95 % of control.

With `CN(C)C1CS(=O)(=O)OC2=C1CCOc1ccccc12` (configuration not stated), the T/C runs as follows: under setting [12], 97 % of control; under setting [13], 91 % of control; under setting [14], 89 % of control.

Consider `Cc1c(-c2nnc(N)o2)cc([N+](=O)[O-])cc1[N+](=O)[O-]`, for which the T/C is 98 % of control (dose: 60.0 mg/kg/injection, schedule: Q01DX005 (ip), vehicle: saline with Tween-80); 100 % of control (dose: 120.0 mg/kg/injection, schedule: Q01DX005 (ip), vehicle: saline with Tween-80); 99 % of control (dose: 240.0 mg/kg/injection, schedule: Q01DX005 (ip), vehicle: saline with Tween-80).

For `CCCCn1cnc2c(=S)nc(N)[nH]c21`, the T/C is, setting by setting: (dose: 25.0 mg/kg/injection, schedule: Q04DX003 (ip), vehicle: saline with Tween-80) 109 % of control; (dose: 50.0 mg/kg/injection, schedule: Q04DX003 (ip), vehicle: saline with Tween-80) 118 % of control; (dose: 400.0 mg/kg/injection, schedule: Q04DX003 (ip), vehicle: saline with Tween-80) 90 % of control.

Regarding `O=C1c2cc(Cl)ccc2-c2c(Cl)cc(Cl)cc21`, the T/C was 87 % of control (dose: 12.5 mg/kg/injection, schedule: Q01DX009 (ip), vehicle: saline with Tween-80); 100 % of control (dose: 25.0 mg/kg/injection, schedule: Q01DX009 (ip), vehicle: saline with Tween-80); 100 % of control under setting [1].

With `Cc1ccc2nc3c4ccccc4c4ccccc4c3nc2c1C`, the T/C is 94 % of control under setting [5], 86 % of control under setting [7] and 89 % of control under setting [8].

As to `CC1(C)CC2(C)OC2C2(C1)N=NC(=O)O2` (configuration not stated), the T/C (dose: 50.0 mg/kg/injection, schedule: Q01DX009 (ip), vehicle: saline + alcohol) is 90 % of control; the T/C under setting [1] is 89 % of control; the T/C (dose: 100.0 mg/kg/injection, schedule: Q01DX009 (ip), vehicle: saline + alcohol) was 100 % of control; the T/C under setting [2] is 87 % of control; the T/C (dose: 200.0 mg/kg/injection, schedule: Q01DX009 (ip), vehicle: saline + alcohol) was 93 % of control; the T/C (dose: 400.0 mg/kg/injection, schedule: Q01DX009 (ip), vehicle: saline + alcohol) is 108 % of control.

For `OC1COC(O)(CNCCc2c[nH]c3ccc(OCc4ccccc4)cc23)C(O)C1O` (configuration not stated), the T/C runs as follows: under setting [12], 101 % of control; under setting [13], 99 % of control; under setting [14], 87 % of control.

For `OC(CO/N=C1\CCc2ccccc21)CN1CCOCC1` (configuration not stated), the T/C by setting is: under setting [9], 105 % of control; under setting [10], 104 % of control; under setting [11], 104 % of control.
